Laboratory results reported in patent publication US20110039877A1, “USE OF 3, 11B-CIS-DIHYDROTETRABENAZINE IN THE TREATMENT OF MULTIPLE SCLEROSIS AND AUTOIMMUNE MYELITIS” (Biovail Laboratories International (Barbados) S.R.L., priority 2007, published 2011).
“Also recorded” adds a separate entry of the source.

Tests used:
DAT and VMAT2 in brain = conditions: conscious rat brain; cited from earlier work
[1] = tested on: experimental autoimmune encephalomyelitis (EAE) induced with mouse spinal cord homogenate in CFA; test: Experimental autoimmune encephalomyelitis (EAE) model of multiple sclerosis; format: in vivo, Biozzi mice; conditions: for protection against EAE (clinical disease score, weight loss): days -1 to 10, Biozzi mice; for overall effect on EAE disease: general statement, no dose given
Procedure: Groups of 10 Biozzi mice aged between 5 and 8 weeks of age were challenged in the flank with mouse spinal cord homogenate (SCH) in complete Freund's adjuvant (CFA) in order to induce EAE. Treatments were given according to the schedule below. Treatment (n=8 per group) Group A—vehicle control Group B—RU350 30 mg/kg days −1 to 10 once daily by oral gavage Group C—RU350 10 mg/kg days −1 to 10 twice daily by oral gavage Group D—Positive control drug A 20 mg/ml solution of SCH in PBS was prepared and mixed in an equal volume with CFA. The mixture was sonicated in a Branson 1200 sonicator for 15 minutes and then homogenised for three minutes. An amount of 1 mg in 100 μl was administered per mouse by subcutaneous injection at the base of tail. In addition, mice were given 200 ng pertussis toxin in 0.5 ml by intraperitoneal (ip) injection on day 0 and again 48 hours later. Mice were treated according to the outline above from day −1 to day 10. The compound of formula (Ia) (i.e. RUS350) was prepared daily by dissolving 15 mg of the compound (stored at −20° C.) in sterile distilled water to give 6 mg/ml solution. A dose of 100 μl was given by oral gavage daily to the group B mice (equivalent to 30 mg/kg per 20 g mouse). For group C mice, 1 ml of the […] stock was further diluted 1:3 in sterile distilled water, and a dose of 100 μl was given orally twice daily (equivalent to 2×10 mg/kg per 20 g mouse). Distilled water served as the vehicle control for the mice in group A. Group D mice were given a dose of 5 mg/kg dexamethasone (100 μg in 100 μl per 20 g mouse) on days 3-7 and days 10-12. Moribund animals were euthanised according to Home Office regulations and all remaining animals were euthanized at day 28 post-induction. At termination, brains and spinal cords were taken from all animals and fixed for histopathology examination. Mice were weighed prior to EAE induction (Day 0) and then daily from day 5 until termination. Clinical disease was monitored from day 5 and scored according the following system: [table]

Question: With `COc1cc2c(cc1O[11CH3])CCN1C[C@@H](CC(C)C)[C@H](O)C[C@H]21` (single isomer, unassigned) [(+)-α-[^11C]dihydrotetrabenazine] as the compound, how does the “distribution of radio-labelled isomer in the brain” value (DAT and VMAT2 in brain) read?
Answer: accumulated in regions of the brain associated with higher concentrations of the neuronal membrane dopamine transporter (DAT) and the vesicular monoamine transporter (VMAT2)

Question: Which “protection against EAE (clinical disease score, weight loss)” value ([1]; 10 mg/kg twice daily by oral gavage) does the source give for `COc1cc2c(cc1OC)[C@H]1C[C@H](O)[C@@H](CC(C)C)CN1CC2` (single isomer, unassigned) [compound of formula (Ia)] here?
Answer: very high level of protection

Question: And the “protection against EAE (clinical disease score, weight loss)” value ([1]; 30 mg/kg once daily by oral gavage)?
Answer: moderate degree of protection

Question: What about the “overall effect on EAE disease” value [1] of the same compound?
Answer: profound effect on the disease; also recorded: levels of protection similar to that provided by treatment with steroids

Question: And the “overall effect on EAE disease” value ([1]; listed as formula (Ia))?
Answer: inhibits the development of autoimmune encephalomyelitis

Question: With `COc1cc2c(cc1O[11CH3])CCN1C[C@H](CC(C)C)[C@@H](O)C[C@@H]21` [(−)-α-[^11C]dihydrotetrabenazine] as the compound, how does the “distribution of radio-labelled isomer in the brain” value (DAT and VMAT2 in brain) read?
Answer: almost uniformly distributed in the brain

Question: With `C[C@@H]1C[C@H]2[C@@H]3CCC4=CC(=O)C=C[C@]4(C)[C@@]3(F)[C@@H](O)C[C@]2(C)[C@@]1(O)C(=O)CO` [steroid, dexamethasone, reference compound] as the compound, how does the “inhibition of severe EAE associated with weight loss” value ([1]; positive control, 5 mg/kg on days 3-7 and days 10-12, Biozzi mice) read?
Answer: markedly inhibited this effect
